In patent US12465567B2, “Enhanced antibiotic and drug delivery for aqueous topical applications for human and veterinary uses” (priority 2018, dated 2025):

Legend:
[1] = in-vitro skin penetration, vertical diffusion cell
Protocol: Skin penetration studies were carried out using porcine full-thickness skin (Procured from Department of Animal and Range Sciences, SDSU) and excised human skin (NDRI, Philadelphia, PA). The skin was sandwiched between the two compartments of a vertical diffusion cell and equilibrated for 3 hrs. The receptor compartment was filled with phosphate buffer (pH 7.4) and was maintained at 37° C. with stirring. […] Samples (200μ) were removed from the receptor compartment at predetermined intervals and replaced with an equal volume of fresh buffer. To study the effect of the formulation forming a skin depot, in a separate experiment the skin was treated for 6 hrs and the treatment was removed. The donor compartment was replaced with plain buffer (pH 7.4) and the study was continued for 48 hrs. At the end of the study the skin was taken out and stratum corneum (SC) was removed using tape stripping and the tape strips were soaked in 50% ethanol overnight to extract the drug. The remaining skin (epidermis and dermis) was homogenized using 1M sodium hydroxide solution. Scintillation cocktail was added to all the samples and the radioactive counts were measured in a scintillation counter (Beckman).

[2] = tested on: reconstructed human skin (EPI-200; Epiderm); test: in vitro skin irritation, MTT viability assay; assay type: cell-based
Protocol: In vitro skin irritation studies were carried out using reconstructed human skin (EPI-200; Epiderm; Mattek Corporation, Ashland, MA). […] Briefly, the MTT assay was performed by transferring the tissues to 24-well plates containing MTT medium (1 mg/ml). After 3 hours, formazan salt formed by cellular mitochondria was extracted with 2 ml/tissue of isopropanol and the optical density will be measured using a plate reader at 570 nm. Relative cell viability will be calculated as % of the mean of the negative control. The cytotoxicity was estimated by the time to kill 50% of the cells (ET-50).

Compound | amount of tetracycline in the human skin [1] | ET 50 Value [2]
CN(C)[C@@H]1C(O)=C(C(N)=O)C(=O)[C@@]2(O)C(O)=C3C(=O)c4c(O)cccc4[C@@](C)(O)[C@H]3C[C@@H]12 [tetracycline] | 20-60 μg/sq·cm | –
Triton X-100 [Positive control] | – | 5.28 h
